Source: PubChem BioAssay (NCI)
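Following 48 hours of exposure in 96-well plates, responses at five concentrations were used to interpolate endpoints linearly. GI50 marks 50% less growth. The concentration for full growth arrest is given as TGI.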

Legend:
Experiment in all cases: NCI anticancer screen, dose series, 48 h
[1] = test system: HCT-15 colon
[2] = test system: HS 578T breast
[3] = test system: KM12 colon
[4] = test system: MCF7 breast
[5] = test system: MDA-MB-231 breast
[6] = test system: MOLT-4 leukemia
[7] = test system: NCI-H460 lung
[8] = test system: OVCAR-8 ovarian
[9] = test system: SN12C renal
[10] = test system: UACC-62 melanoma

SMILES | GI50 [1] [µM] | TGI [1] [µM] | GI50 [2] [µM] | TGI [2] [µM] | GI50 [3] [µM] | TGI [3] [µM] | GI50 [4] [µM] | TGI [4] [µM] | GI50 [5] [µM] | TGI [5] [µM] | GI50 [6] [µM] | TGI [6] [µM] | GI50 [7] [µM] | TGI [7] [µM] | GI50 [8] [µM] | TGI [8] [µM] | GI50 [9] [µM] | TGI [9] [µM] | GI50 [10] [µM] | TGI [10] [µM]
C=C(C)[C@@H]1CC[C@]2(COCCC#N)CC[C@]3(C)[C@H](CC[C@@H]4[C@@](C)(CCCNCCC#N)[C@H](C(=C)C)CC[C@]43C)[C@@H]12 | 7.66 | 16.6 | 21.1 | > 50 | 15.6 | > 50 | 9.9 | 48.5 | 7.83 | 17.7 | 7.72 | 25 | 13.2 | > 50 | 12.1 | 31.8 | 10 | 29.2 | 8.81 | 23.1
Cc1ccc(Cl)cc1Nc1nc(C(F)(F)F)ccc1C(=O)N/N=C/c1cccnc1 | 0.693 | 13.7 | 4.05 | 18.5 | 3.19 | 11.8 | 2.45 | 13.9 | 2.08 | 17.4 | 1.42 | 10.7 | 2.76 | 11.1 | 3.05 | 15.1 | 4.75 | 21.9 | 3.25 | 13.7
CCOC(=O)c1ccccc1OC(=O)NNc1ccccc1 | 0.862 | > 100 | > 31.9 | > 100 | 0.173 | > 56.4 | 8.14 | > 100 | 10.5 | > 100 | 0.465 | > 100 | 0.442 | > 100 | 9.19 | > 100 | 34.9 | > 100 | 0.269 | > 28.2
C[n+]1c(/C=C/c2c[nH]c3ccccc23)ccc2ccccc21 | 18 | 53.4 | 13.2 | 33.3 | 4.61 | 22.3 | 2.16 | 34.1 | 10.5 | 23 | 4.03 | 15.5 | 3.14 | 12.9 | 4.24 | 28.9 | 5.68 | 21 | 7.31 | 21.1
CCOC(=O)c1ccc2c(c1)Cc1cc([N+](=O)[O-])ccc1-2 | – | > 100 | – | > 100 | – | > 100 | – | 71.2 | – | > 100 | – | 51.6 | – | > 100 | – | > 100 | – | > 100 | – | > 100
CCCCCCCC/C=C/CCCCCCCC1=NC(C)(C)CN1CC(C)O (stereo not given) | 1.63 | 3.27 | 1.9 | 4.62 | 1.99 | 3.98 | 1.85 | 3.62 | 1.66 | 3.43 | 2.05 | 4.28 | 1.94 | 3.64 | 1.97 | 3.9 | 3.3 | 12.3 | 1.66 | 3.13
COc1ccc2sc3cccc(NCCN(C)C)c3c(=O)c2c1 | 2.24 | 6.65 | 2.83 | 13.1 | 3.72 | 12.1 | 1.76 | 3.9 | 1.57 | 4.29 | 2.5 | 6.01 | 2.57 | 6.22 | 3.3 | 12.5 | 3.36 | 13.4 | 1.76 | 3.24
Nc1nc2c(ncn2C2CCC(CO)O2)c(=O)n1C(=O)c1ccccc1 (stereo not given) | – | > 100 | – | > 100 | – | > 100 | – | > 100 | – | > 100 | – | > 100 | – | > 100 | – | > 100 | – | > 100 | – | > 100
CC(C)N1CC2CN(Cc3ccccc3)CC(C1)C2=O | – | > 100 | – | > 100 | – | > 100 | – | > 100 | – | > 100 | – | > 100 | – | > 100 | – | > 100 | – | > 100 | – | > 100
CCN(CC)CCNc1ccc(C)c2sc3cc(Cl)ccc3c(=O)c12 | 1.5 | 3.12 | 1.65 | 3.9 | 1.75 | 3.26 | 1.55 | 3.2 | 1.41 | 2.93 | 1.55 | 3.28 | 1.87 | 3.54 | 1.9 | 3.49 | 1.68 | 3.44 | 1.87 | 3.54
O=C1C(Cl)=C(Sc2nnc3c4ccccc4c4ccccc4c3n2)C(=O)c2ccccc21 | – | 42.8 | – | > 100 | – | 30.7 | – | 28.2 | – | 17 | – | 34.4 | – | 37 | – | 29.6 | – | 33.1 | – | 29.8
COc1cc(/C=C2\C[C@H]3[C@@H]4CC=C5C[C@@H](O)CC[C@]5(C)[C@H]4CC[C@]3(C)[C@H]2O)ccc1OCCN1CCCC1 | 11.8 | 38 | 11.1 | 25.1 | 9.69 | 19.8 | 16.4 | > 50 | 11.7 | 23 | 2.46 | 11.3 | 13.5 | 36.2 | 13.5 | 27.2 | 8.48 | 17.9 | 8.9 | 16.9
Cc1ccc(NC(=O)c2ccc(CN3CCN(C)CC3)cc2)cc1Nc1nccc(-c2cccnc2)n1 | 16.2 | 80.5 | 15 | 43.1 | 18.8 | 41.3 | 17.8 | 44.8 | 18.3 | 46.2 | 5.11 | 41.4 | 16.8 | 37.1 | 27 | > 89.9 | 30.7 | > 100 | 19.2 | 40.5
CCOC(=O)[C@@H](C)C[C@H](Cc1ccccc1)NC(=O)c1nc([C@@H](C[C@H](C(C)C)N(C)C(=O)[C@@H](NC(=O)[C@H]2CCCCN2C)C(C)C)OC(C)=O)sc1CCOCc1ccccc1 | 0.262 | 1.51 | 0.083 | 2.85 | 0.0442 | 1.48 | 0.0404 | 4.33 | 0.175 | 1.02 | 0.132 | 5.61 | 0.0425 | 1.4 | 0.216 | 2.08 | 0.0706 | 1.55 | 0.0372 | 1.69
COc1cccc(CCC2CCCN(c3cc(C)nc(N)n3)C2)c1 (stereo not given) | 0.418 | 12.3 | 0.418 | 16.7 | 0.315 | 12.4 | 0.292 | 11.9 | 1.2 | 11.5 | 0.496 | 13.2 | 0.38 | 11.6 | 0.531 | 8.93 | 0.635 | 11.5 | 0.426 | 5.49
O=C(c1ccco1)c1nc2cc(C(F)(F)F)ccc2nc1C(F)(F)F | > 100 | > 100 | > 100 | > 100 | > 100 | > 100 | 40.6 | > 100 | 99.1 | > 100 | > 100 | > 100 | > 100 | > 100 | > 100 | > 100 | > 100 | > 100 | > 100 | > 100
COc1ccc(N=Cc2c(O)ccc3c2oc2cc(Cl)c(O)c(Cl)c23)cc1 | 7.38 | 25.7 | 4.45 | 23.1 | 7.91 | 21.3 | 7.7 | 44.1 | 14.7 | 48.4 | 4.84 | 30 | 12.7 | 33.9 | 15 | 45.9 | 19.3 | 63.6 | 10.3 | 33.7
CC12OOC(c3ccccc31)c1c2ccc2ccccc12 (stereo not given) | – | 5.09 | – | 78.7 | – | 7.43 | – | 32.4 | – | 26.6 | – | 3.42 | – | 5.48 | – | 20.9 | – | 29.6 | – | 21.2
CCOC(=O)c1ccc(Nc2sc(C(=O)c3ccc(Br)cc3)c(N)c2C#N)cc1 | 0.662 | > 100 | 1.48 | > 100 | 0.775 | > 100 | 0.655 | > 100 | 2.92 | > 100 | 4.61 | > 100 | 0.924 | > 100 | 6.91 | > 100 | 4.12 | > 100 | 0.483 | > 100
CO/C=C/C(=O)c1cc2cnc3c(=N)cc(NC(=O)C(C)C)c([nH]1)c23 | 0.0431 | 0.99 | 0.0195 | 0.188 | 0.196 | 1.86 | 0.0182 | 1.25 | 0.0883 | 0.66 | 0.0159 | 0.166 | 0.323 | 11.4 | 0.113 | 1.02 | 0.0246 | 1.61 | 0.0408 | 0.185
CC[C@H](NC(=O)[C@H]1CCCCN1C)C(=O)N(C)[C@H](C[C@@H](OC(C)=O)c1nc(C(=O)N[C@@H](Cc2ccccc2)C[C@H](C)C(=O)O)cs1)C(C)C | 0.00933 | > 14.3 | 0.00643 | > 14.3 | 0.00192 | > 14.3 | < 0.00143 | > 14.3 | 0.008 | > 14.3 | 0.0106 | > 14.3 | 0.00436 | > 14.3 | 0.0166 | > 14.3 | 0.00993 | > 14.3 | 0.00161 | > 14.3
O=C(COc1ccc(/C=C2\COc3ccccc3C2=O)cc1)Nc1nccs1 | 5.05 | 23.8 | 2.74 | 9.4 | 3.28 | 10.5 | 3.92 | 14.2 | 17.8 | 60 | 1.6 | 3.76 | 18.6 | 64.6 | 4.49 | 45.2 | 5.69 | 25.7 | 7.69 | 21.1
CCOC(=O)C1=C(C)N=c2s/c(=C\c3ccccc3O)c(=O)n2C1c1ccc(OC)c2ccccc12 (stereo not given) | 8.69 | > 100 | 2.95 | 13.4 | 9.66 | > 100 | 4.36 | 32 | 2.69 | 6.79 | 15.5 | > 100 | 8.92 | 39.5 | 5.35 | 22 | 17.6 | 63.6 | 40.7 | > 100
CC(C)(C)N1CCC1CN (stereo not given) | > 100 | > 100 | > 100 | > 100 | > 100 | > 100 | > 100 | > 100 | > 100 | > 100 | > 100 | > 100 | > 100 | > 100 | > 100 | > 100 | > 100 | > 100 | > 100 | > 100
N#Cc1c(NC(=O)NCc2ccccc2)sc2c1CCCC2 | 0.443 | > 100 | 0.404 | > 100 | 0.425 | > 100 | 0.363 | > 100 | 1.73 | > 42.4 | 0.487 | > 100 | 0.407 | > 100 | 2.29 | > 100 | 0.813 | > 100 | 0.455 | > 100
C[C@]12CC[C@@H]3c4cc(OC(F)F)c(O)cc4CC[C@H]3[C@@H]1CC[C@@H]2OS(N)(=O)=O | 0.458 | 26.8 | 0.475 | 48.8 | 0.545 | 31 | 0.566 | 47.1 | 2.68 | 41.5 | 0.598 | > 100 | 0.422 | 15.4 | 1.55 | 68.1 | 1.02 | 70.5 | 0.403 | 18.2
